Experimental data from article PMC11790914, “Chemogenomics for steroid hormone receptors (NR3)” (Communications Chemistry, 2025).
Several values for one entry are separate records, joined by “and”; a condition that tells them apart may be missing. Identical values can stand only once.

Assays:
HEK293T cells [1] = test: Cytotoxicity: necrosis induction (red fluorescent dye for permeable plasma membranes); type: cell-based; details: 1 µM, 24 h, necrotic cell count normalized to 0.1% DMSO, single replicates;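 note: compounds applied in DMEM high glucose with 0.1% FCS and 0.1% DMSO, necrotic HEK293T cells counted by red staining of cells whose plasma membranes had become permeable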
ABL1 = biological target: T1, ABL1 (Homo sapiens, UniProt P00519); test: Liability panel screening by DSF: ABL1; type: binding; details: DSF, 20 µM, n=2; read-out: Mean ΔTM ABL1
T1 construct: made in house
T1 sequence (P00519 whole entry, species assumed): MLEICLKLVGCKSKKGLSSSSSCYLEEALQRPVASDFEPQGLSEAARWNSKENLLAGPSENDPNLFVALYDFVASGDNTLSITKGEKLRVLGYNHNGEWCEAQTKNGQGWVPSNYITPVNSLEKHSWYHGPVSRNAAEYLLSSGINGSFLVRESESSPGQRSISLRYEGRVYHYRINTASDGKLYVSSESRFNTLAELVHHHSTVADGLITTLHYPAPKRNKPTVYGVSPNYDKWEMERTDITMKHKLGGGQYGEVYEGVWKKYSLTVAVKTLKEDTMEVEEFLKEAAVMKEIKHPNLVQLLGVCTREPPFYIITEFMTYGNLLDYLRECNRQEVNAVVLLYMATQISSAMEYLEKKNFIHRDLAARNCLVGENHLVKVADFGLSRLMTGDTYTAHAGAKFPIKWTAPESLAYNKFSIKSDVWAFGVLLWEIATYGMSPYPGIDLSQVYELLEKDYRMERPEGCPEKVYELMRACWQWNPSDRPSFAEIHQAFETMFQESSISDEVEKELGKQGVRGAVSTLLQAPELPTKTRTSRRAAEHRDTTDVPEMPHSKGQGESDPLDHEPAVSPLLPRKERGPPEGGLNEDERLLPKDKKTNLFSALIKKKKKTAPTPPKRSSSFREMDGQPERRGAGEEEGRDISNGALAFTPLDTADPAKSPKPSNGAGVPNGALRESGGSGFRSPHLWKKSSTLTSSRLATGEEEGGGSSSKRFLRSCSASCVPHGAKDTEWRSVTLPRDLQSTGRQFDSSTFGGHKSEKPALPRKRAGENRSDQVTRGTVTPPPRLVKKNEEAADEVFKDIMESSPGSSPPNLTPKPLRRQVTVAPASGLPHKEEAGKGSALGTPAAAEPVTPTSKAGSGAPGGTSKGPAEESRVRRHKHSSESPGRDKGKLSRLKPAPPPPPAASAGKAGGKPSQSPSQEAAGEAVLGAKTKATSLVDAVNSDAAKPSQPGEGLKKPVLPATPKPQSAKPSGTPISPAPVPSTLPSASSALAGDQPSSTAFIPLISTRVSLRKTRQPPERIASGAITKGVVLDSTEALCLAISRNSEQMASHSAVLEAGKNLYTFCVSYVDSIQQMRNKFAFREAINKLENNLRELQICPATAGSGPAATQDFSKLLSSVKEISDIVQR
In short: (§1)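 Recombinant protein at 2 µM in 10 mM HEPES pH 7.5 with 500 mM NaCl was mixed with SYPRO Orange (1:1000) and heated at 3 °C/min up to 85 °C. Tm was taken as the Boltzmann-fit inflection point. Shifts are ∆Tm in K from technical duplicates.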

BRPF1 = biological target: T2, BRPF1 (Homo sapiens, UniProt P55201); test: Liability panel screening by DSF: BRPF1; type: binding; details: DSF, 20 µM, n=2; read-out: Mean ΔTM BRPF1
T2 construct: This panel comprised ten highly ligandable kinases and bromodomains; made in house
T2 sequence (P55201 628-732 limits assumed): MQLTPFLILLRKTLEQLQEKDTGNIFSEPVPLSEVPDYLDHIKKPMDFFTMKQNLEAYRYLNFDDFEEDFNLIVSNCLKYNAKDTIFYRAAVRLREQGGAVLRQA
In short: as §1

CDK2 = biological target: T3, CDK2 (Homo sapiens, UniProt P24941); test: Liability panel screening by DSF: CDK2; type: binding; details: DSF, 20 µM, n=2; read-out: Mean ΔTM CDK2
T3 construct: made in house
In short: as §1

Gal4-VP16 = type: cell-based; details: 1 µM; vs. DMSO ctrl; single replicates n=1-3
HEK293T cells [2] = test: Cytotoxicity: apoptosis induction (caspase-3/7 DEVD fluorogenic DNA dye); details: 1 µM; HEK293T, 24 h; apoptotic cell count normalized to 0.1% DMSO; single replicates
AURKA = biological target: T4, AURKA (Homo sapiens, UniProt O14965); test: Liability panel screening by DSF: AURKA; type: binding; details: DSF, 20 µM, n=2; read-out: Mean ΔTM AURKA
T4 construct: made in house
T4 sequence (O14965 1-403): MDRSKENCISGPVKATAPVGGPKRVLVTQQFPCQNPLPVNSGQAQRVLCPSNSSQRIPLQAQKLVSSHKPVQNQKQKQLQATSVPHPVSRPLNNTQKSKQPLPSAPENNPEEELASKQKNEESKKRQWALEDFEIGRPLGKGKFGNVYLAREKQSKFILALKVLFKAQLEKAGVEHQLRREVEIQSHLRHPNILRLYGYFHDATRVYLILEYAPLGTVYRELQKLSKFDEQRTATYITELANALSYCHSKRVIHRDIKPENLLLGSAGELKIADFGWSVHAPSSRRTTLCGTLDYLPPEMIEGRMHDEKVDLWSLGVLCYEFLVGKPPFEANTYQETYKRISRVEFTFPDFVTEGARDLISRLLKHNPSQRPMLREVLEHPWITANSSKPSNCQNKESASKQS
In short: as §1

[3] = test system: ATF6 activity in Hela ATF6 reporter cells; test: Endoplasmic reticulum stress assay (ATF6 Renilla luciferase reporter, tunicamycin); type: cell-based; details: for ATF6 activity (tunicamycin-induced endoplasmic reticulum stress): Hela ATF6 reporter cells, tunicamycin 100 ng/mL, 18 h, compounds at recommended concentrations, n = 5; for activity at 1 µM: Homo sapiens, HeLa, single replicates n=1 to n=5, read-out: ER stress [rel. ATF6 activity]
In short: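 ER stress was induced by 100 ng/mL tunicamycin added 4 h after compound (0.1% DMSO) to HeLa ATF6 reporter cells. After 18 h more, Renilla luciferase signal was read and expressed relative to DMSO control, n=5 biological replicates.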

[4] = test system: NF-κB activity in HEK293 NF-κB reporter cells; test: NF-kB activity assay (GFP reporter, ionomycin/PMA); type: cell-based; details: for Mean NFκB response: n=3
In short: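 Reporter readout: GFP-expressing cells normalized to confluence, imaged every 90 min across 24 h after ionomycin (100 ng/mL)/PMA (10 ng/mL) stimulation of HEK293 cells pre-treated 4 h with compound (0.1% DMSO); triplicate independent experiments.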

BRD4 = biological target: T5, BRD4 (Homo sapiens, UniProt O60885); test: Liability panel screening by DSF: BRD4; type: binding; details: DSF, 20 µM, n=2; read-out: Mean ΔTM BRD4
T5 construct: This panel comprised ten highly ligandable kinases and bromodomains; made in house
In short: as §1

HEK293T cells [5] = test: Cytotoxicity: growth-rate (change in confluence over 24 h); details: 1 µM, normalized to 0.1% DMSO control, single replicates (n=1...)
CSNK1D = biological target: T6, CSNK1D (Homo sapiens, UniProt P48730); test: Liability panel screening by DSF: CSNK1D; type: binding; details: DSF, 20 µM, n=2; read-out: Mean ΔTM CSNK1D
T6 construct: made in house
T6 sequence (P48730 whole entry, species assumed): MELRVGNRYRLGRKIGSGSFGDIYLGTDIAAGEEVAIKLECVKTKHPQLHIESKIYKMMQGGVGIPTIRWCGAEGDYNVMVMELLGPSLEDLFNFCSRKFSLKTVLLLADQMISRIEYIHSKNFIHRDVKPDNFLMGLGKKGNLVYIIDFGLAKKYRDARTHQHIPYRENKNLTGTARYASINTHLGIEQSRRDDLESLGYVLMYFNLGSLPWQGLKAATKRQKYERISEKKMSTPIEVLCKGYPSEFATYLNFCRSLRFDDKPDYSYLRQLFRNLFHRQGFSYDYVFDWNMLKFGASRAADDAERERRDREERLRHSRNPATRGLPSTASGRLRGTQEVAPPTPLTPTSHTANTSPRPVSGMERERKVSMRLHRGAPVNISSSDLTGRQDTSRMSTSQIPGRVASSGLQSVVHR
In short: as §1

GSK3B = biological target: T7, GSK3B (Homo sapiens, UniProt P49841); test: Liability panel screening by DSF: GSK3B; type: binding; details: DSF, 20 µM, n=2; read-out: Mean ΔTM GSK3B
T7 construct: made in house
T7 sequence (P49841 whole entry, species assumed): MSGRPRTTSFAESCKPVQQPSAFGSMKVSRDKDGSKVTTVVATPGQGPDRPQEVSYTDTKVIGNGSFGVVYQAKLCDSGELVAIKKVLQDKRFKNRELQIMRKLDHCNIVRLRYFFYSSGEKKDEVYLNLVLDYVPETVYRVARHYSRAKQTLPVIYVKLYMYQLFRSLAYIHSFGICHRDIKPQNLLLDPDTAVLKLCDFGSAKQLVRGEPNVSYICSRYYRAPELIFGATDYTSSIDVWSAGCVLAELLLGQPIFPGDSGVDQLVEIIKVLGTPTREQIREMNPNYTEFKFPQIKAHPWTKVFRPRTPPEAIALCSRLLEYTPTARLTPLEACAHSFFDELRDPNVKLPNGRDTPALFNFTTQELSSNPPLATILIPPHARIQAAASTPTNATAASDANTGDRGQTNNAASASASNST

MAPK1 = biological target: T8, MAPK1 (Homo sapiens, UniProt P28482); test: Liability panel screening by DSF: MAPK1; type: binding; details: DSF, 20 µM, n=2; read-out: Mean ΔTM MAPK1
T8 construct: made in house
T8 sequence (P28482 whole entry, species assumed): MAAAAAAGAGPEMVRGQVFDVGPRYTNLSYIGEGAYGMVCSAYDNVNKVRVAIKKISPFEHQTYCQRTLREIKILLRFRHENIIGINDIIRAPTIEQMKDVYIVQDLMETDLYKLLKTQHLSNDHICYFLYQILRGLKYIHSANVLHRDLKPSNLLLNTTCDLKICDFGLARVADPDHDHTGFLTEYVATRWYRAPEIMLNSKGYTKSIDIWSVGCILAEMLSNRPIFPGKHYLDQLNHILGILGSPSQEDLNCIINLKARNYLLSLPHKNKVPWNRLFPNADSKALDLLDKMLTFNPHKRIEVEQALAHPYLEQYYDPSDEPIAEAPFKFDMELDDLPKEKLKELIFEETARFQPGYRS
In short: as §1

Row | SMILES | Necrosis induction [NI] (HEK293T cells [1]) | ΔTm at 20 µM (ABL1) [°C] | ΔTm at 20 µM (BRPF1) [°C] | ΔTm at 20 µM (CDK2) [°C] | VP16 control [fold reporter gene activity] (Gal4-VP16) | Apoptosis induction [AI] (HEK293T cells [2]) | ΔTm at 20 µM (AURKA) [°C] | ATF6 activity (tunicamycin-induced endoplasmic reticulum stress) [3] | activity at 1 µM [3] [%] | Mean NFκB response ([4]; 1 µM, 1,5 h) | Mean NFκB response ([4]; 1 µM, 4,5 h) | Mean NFκB response ([4]; 1 µM, 7,5 h) | Mean NFκB response ([4]; 1 µM, 10,5 h) | Mean NFκB response ([4]; 1 µM, 13,5 h) | Mean NFκB response ([4]; 1 µM, 16,6 h) | Mean NFκB response ([4]; 1 µM, 19,5 h) | Mean NFκB response ([4]; 1 µM, 22,5 h) | Mean NFκB response ([4]; 1 µM, 3 h) | Mean NFκB response ([4]; 1 µM, 6 h) | Mean NFκB response ([4]; 1 µM, 9 h) | further results
1 | Cc1ccc2c(NC[C@](O)(CC(C)(C)c3cc(F)cc4c3OCC4)C(F)(F)F)cccc2n1 [Mapracorat] | 1.18 and 1.03 and 0.88 and 0.99 | 0.24 | 0.63 | -0.17 | 0.84 fold reporter gene activity and 0.88 fold reporter gene activity and 1.01 fold reporter gene activity | -0.37 and -0.27 and 0.87 and 1.32 and 1.12 and 1.57 | -0.69 | Consistently weaker ATF6 activity | 83 | 2171.23 GFP+-cells/confluence ∙ 1000 | 3001.35 GFP+-cells/confluence ∙ 1000 | 6252.60 GFP+-cells/confluence ∙ 1000 | 12057.95 GFP+-cells/confluence ∙ 1000 | 15815.67 GFP+-cells/confluence ∙ 1000 | 19330.00 GFP+-cells/confluence ∙ 1000 | 21866.67 GFP+-cells/confluence ∙ 1000 | 23846.67 GFP+-cells/confluence ∙ 1000 | 2434.19 GFP+-cells/confluence ∙ 1000 | 4081.73 GFP+-cells/confluence ∙ 1000 | 9170.03 GFP+-cells/confluence ∙ 1000 | Mean NFκB response ([4]; 1 µM, 12 h): 13883.00 GFP+-cells/confluence ∙ 1000; Mean NFκB response ([4]; 1 µM, 15 h): 17560.00 GFP+-cells/confluence ∙ 1000; Mean NFκB response ([4]; 1 µM, 18 h): 20616.67 GFP+-cells/confluence ∙ 1000; Mean NFκB response ([4]; 1 µM, 21 h): 23216.67 GFP+-cells/confluence ∙ 1000; Mean NFκB response ([4]; 1 µM, 24 h): 25073.33 GFP+-cells/confluence ∙ 1000; NF-κB activity (inflammatory response to ionomycin/PMA) ([4]; HEK293 NF-κB reporter cells, compounds at recommended concentrations, imaged over 24 h, n = 3): consistently delayed and strongly diminished NF-κB activity; ΔTm at 20 µM (BRD4): -0.11 °C; Growth rate [GR] (HEK293T cells [5]): 0.90 and 6.11 and 0.92 and 1.17 and 0.84 and 0.73 and 1.07 and 1.61 and 3.67 and 14.17; ΔTm at 20 µM (CSNK1D): -0.78 °C; ΔTm at 20 µM (GSK3B): -0.25 °C; ΔTm at 20 µM (MAPK1): -0.47 °C
2 | COc1cc(/C=C(\C#N)C(=O)Nc2nnc(C(F)(F)F)s2)ccc1OCc1ccc(C(F)(F)F)cc1C(F)(F)F [XCT790] | 0.92 and 0.82 and 0.84 and 0.79 | 0.47 | -1.02 | 0.38 | 1.11 fold reporter gene activity and 0.95 fold reporter gene activity and 0.91 fold reporter gene activity | 0.85 (2×) and 0.75 and 0.81 and 1.26 and 1.13 | -0.27 | lacked this effect | 100 | 3626.75 GFP+-cells/confluence ∙ 1000 | 4074.08 GFP+-cells/confluence ∙ 1000 | 7428.22 GFP+-cells/confluence ∙ 1000 | 16505.45 GFP+-cells/confluence ∙ 1000 | 23920.00 GFP+-cells/confluence ∙ 1000 | 29753.33 GFP+-cells/confluence ∙ 1000 | 33970.00 GFP+-cells/confluence ∙ 1000 | 37876.67 GFP+-cells/confluence ∙ 1000 | 3669.25 GFP+-cells/confluence ∙ 1000 | 4944.18 GFP+-cells/confluence ∙ 1000 | 11887.81 GFP+-cells/confluence ∙ 1000 | Mean NFκB response ([4]; 1 µM, 12 h): 20416.67 GFP+-cells/confluence ∙ 1000; Mean NFκB response ([4]; 1 µM, 15 h): 27150.00 GFP+-cells/confluence ∙ 1000; Mean NFκB response ([4]; 1 µM, 18 h): 32423.33 GFP+-cells/confluence ∙ 1000; Mean NFκB response ([4]; 1 µM, 21 h): 35883.33 GFP+-cells/confluence ∙ 1000; Mean NFκB response ([4]; 1 µM, 24 h): 39596.67 GFP+-cells/confluence ∙ 1000; ΔTm at 20 µM (BRD4): -2.31 °C; Growth rate [GR] (HEK293T cells [5]): 0.75 and 0.63 and 1.18 and 1.17 and 1.04 (2×) and 0.70 and 0.89 and 0.87 and 0.19; ΔTm at 20 µM (CSNK1D): 0.0531 °C; ΔTm at 20 µM (GSK3B): -0.62 °C; ΔTm at 20 µM (MAPK1): 0.28 °C
